# In patent publication EP1121151B1, “ANTI-INFLAMMATORY ALPHA2, BETA1 INTEGRIN-RELATED SUBSTANCES OR ANTIBODIES” (Lindbom, Lennart, priority 1998, dated 2006):
# Tested on: PMN
# Test: Intravital time lapse videomicroscopy of PAF-stimulated PMN locomotion in rat mesenteric tissue in vivo
# Conditions: rat mesentery, PAF 10^-7 M
# Method: Intravital time lapse videomicroscopy of PMN locomotion in vivo. PMN locomotion in rat mesenteric tissue was studied through use of intravital time lapse videomicroscopy according to the protocol previously described in detail (Werr et al., supra). In brief, Wistar rats (200-250 g) were anesthetized with equal parts of fluanison/fentanyl (10/0.2 mg/ml; Hypnorm; Janssen-Cilag Ltd., Saunderton, UK) and midazolam (5 mg/ml; Dormicum; Hoffman-La Roche, Basel, Switzerland) diluted 1:1 with sterile water (2 ml/kg i.m.). Body temperature was maintained at 37° C by a heating pad connected to a rectal thermistor. After laparotomy, a segment of the ileum was exposed on a heated transparent pedestal to allow microscopic observation of the mesenteric microvasculature (Orthoplan microscope equipped with water immersion lens SW×25, NA 0.60; Leitz, Wetzlar, Germany). The microscopic image was televised and recorded on time lapse video (at 1/7 of normal speed). Analysis of leukocyte migration in the mesenteric tissue was made off line and the migration path of individual leukocytes was tracked with a digital image analyzer. […]
sequence,measurement,setting,value
ACRGDGWMCG,effect on PMN migration at ten-fold higher concentrations,"ten-fold higher concentrations than 500 µM, some experiments",did not yield different effects
same,effect on PMN migration,"topical administration, peptide 500 µM",without effect
